Test results as given in patent US9682141B2, “Combination of kinase inhibitors and uses thereof” (INTELLIKINE LLC, priority 2011, dated 2017).

How the values were obtained:
Type in all cases: biochemical
[1] = target: PI3K γ (Homo sapiens (Human), UniProt P48736); assay: PI 3-Kinase (human) HTRF assay, p110γ; details: read-out: PI3K γ IC50
[2] = target: PI3K δ (Homo sapiens (Human), UniProt O00329); assay: PI 3-Kinase (human) HTRF assay, p110δ/p85α
[3] = target: PI3K α (Homo sapiens (Human), UniProt P42336); assay: PI 3-Kinase (human) HTRF assay, p110α/p85α
[4] = target: PI3K β (Homo sapiens (Human), UniProt P42338); assay: PI 3-Kinase (human) HTRF assay, p110β/p85α
PI3K β, sequence (P42338 whole entry): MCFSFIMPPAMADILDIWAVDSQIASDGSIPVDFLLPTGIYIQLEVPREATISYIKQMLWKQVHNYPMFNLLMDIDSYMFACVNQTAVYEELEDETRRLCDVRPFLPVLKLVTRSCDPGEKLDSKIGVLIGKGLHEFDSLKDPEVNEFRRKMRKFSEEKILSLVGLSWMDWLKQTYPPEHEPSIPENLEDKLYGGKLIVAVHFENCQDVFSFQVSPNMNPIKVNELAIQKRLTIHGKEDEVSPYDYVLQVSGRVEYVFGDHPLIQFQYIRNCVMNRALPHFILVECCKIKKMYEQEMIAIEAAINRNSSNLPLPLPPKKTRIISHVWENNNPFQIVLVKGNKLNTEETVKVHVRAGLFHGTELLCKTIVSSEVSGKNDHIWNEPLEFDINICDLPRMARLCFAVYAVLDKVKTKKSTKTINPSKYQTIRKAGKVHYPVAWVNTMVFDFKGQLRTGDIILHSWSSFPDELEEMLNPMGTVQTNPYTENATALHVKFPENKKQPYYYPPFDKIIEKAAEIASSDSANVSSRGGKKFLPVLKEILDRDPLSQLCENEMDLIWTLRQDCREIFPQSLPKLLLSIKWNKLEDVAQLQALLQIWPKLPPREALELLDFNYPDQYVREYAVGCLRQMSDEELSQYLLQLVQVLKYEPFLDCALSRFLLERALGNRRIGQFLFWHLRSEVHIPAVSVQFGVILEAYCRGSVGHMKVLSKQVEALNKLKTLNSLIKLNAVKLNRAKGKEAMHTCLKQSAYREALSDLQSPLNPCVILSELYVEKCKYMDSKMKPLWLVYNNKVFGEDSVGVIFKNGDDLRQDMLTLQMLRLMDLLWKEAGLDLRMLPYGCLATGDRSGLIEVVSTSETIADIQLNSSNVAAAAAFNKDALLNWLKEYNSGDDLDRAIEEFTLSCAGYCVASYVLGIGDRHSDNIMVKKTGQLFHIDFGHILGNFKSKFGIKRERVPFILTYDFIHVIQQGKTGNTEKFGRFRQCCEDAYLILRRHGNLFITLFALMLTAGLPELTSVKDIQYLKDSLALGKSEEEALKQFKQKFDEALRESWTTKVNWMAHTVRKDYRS
PI3K β, sequence (P27986 whole entry partner): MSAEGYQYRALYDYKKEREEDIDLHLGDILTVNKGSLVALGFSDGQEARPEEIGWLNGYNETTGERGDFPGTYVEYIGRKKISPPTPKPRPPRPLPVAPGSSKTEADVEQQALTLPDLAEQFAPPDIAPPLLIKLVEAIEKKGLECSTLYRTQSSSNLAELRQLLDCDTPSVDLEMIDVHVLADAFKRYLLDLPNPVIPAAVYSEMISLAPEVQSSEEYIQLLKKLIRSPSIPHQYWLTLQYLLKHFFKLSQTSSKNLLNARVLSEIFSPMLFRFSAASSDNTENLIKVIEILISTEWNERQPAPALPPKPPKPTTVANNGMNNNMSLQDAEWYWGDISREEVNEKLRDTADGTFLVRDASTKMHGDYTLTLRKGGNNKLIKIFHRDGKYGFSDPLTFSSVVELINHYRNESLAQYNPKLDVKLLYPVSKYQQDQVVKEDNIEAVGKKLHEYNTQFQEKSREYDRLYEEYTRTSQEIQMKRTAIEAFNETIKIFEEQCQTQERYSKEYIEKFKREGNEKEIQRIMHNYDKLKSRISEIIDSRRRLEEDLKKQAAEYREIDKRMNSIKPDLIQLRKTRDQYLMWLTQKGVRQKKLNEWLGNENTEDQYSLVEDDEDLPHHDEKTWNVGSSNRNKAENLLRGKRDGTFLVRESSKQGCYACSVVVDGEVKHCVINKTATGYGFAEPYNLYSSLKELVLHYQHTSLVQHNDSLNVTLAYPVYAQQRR

PI3K α, sequence (P42336 whole entry): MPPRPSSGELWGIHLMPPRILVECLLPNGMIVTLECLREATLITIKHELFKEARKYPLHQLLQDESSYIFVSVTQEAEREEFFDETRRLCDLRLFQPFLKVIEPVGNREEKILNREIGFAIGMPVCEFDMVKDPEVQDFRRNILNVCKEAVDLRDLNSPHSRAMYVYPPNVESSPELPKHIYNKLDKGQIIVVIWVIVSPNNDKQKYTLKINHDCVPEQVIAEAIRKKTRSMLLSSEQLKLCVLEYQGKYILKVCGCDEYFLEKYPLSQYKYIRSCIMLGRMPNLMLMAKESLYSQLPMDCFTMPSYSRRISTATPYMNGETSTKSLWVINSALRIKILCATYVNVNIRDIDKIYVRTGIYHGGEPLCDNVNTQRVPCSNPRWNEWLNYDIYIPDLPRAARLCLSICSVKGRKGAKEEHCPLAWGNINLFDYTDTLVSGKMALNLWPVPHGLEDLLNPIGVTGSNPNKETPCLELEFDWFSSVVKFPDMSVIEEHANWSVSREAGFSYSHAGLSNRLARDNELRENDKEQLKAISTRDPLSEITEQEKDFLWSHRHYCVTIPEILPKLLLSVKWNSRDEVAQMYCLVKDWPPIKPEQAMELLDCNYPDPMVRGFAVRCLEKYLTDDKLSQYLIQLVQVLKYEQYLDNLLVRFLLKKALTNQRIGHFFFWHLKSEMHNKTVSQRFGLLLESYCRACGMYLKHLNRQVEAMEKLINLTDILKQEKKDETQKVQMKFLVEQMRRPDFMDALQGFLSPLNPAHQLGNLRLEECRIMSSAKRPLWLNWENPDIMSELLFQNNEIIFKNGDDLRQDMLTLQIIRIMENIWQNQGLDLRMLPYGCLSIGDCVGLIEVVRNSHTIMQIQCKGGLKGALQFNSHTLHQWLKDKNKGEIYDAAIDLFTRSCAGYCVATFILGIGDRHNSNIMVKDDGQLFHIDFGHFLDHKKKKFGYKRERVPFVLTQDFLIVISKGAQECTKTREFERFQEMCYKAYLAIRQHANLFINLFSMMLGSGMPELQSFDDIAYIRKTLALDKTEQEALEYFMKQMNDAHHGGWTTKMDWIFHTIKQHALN
PI3K α, sequence (P27986 whole entry partner): as the sequence (P27986 whole entry partner) above
PI3K δ, sequence (O00329 whole entry): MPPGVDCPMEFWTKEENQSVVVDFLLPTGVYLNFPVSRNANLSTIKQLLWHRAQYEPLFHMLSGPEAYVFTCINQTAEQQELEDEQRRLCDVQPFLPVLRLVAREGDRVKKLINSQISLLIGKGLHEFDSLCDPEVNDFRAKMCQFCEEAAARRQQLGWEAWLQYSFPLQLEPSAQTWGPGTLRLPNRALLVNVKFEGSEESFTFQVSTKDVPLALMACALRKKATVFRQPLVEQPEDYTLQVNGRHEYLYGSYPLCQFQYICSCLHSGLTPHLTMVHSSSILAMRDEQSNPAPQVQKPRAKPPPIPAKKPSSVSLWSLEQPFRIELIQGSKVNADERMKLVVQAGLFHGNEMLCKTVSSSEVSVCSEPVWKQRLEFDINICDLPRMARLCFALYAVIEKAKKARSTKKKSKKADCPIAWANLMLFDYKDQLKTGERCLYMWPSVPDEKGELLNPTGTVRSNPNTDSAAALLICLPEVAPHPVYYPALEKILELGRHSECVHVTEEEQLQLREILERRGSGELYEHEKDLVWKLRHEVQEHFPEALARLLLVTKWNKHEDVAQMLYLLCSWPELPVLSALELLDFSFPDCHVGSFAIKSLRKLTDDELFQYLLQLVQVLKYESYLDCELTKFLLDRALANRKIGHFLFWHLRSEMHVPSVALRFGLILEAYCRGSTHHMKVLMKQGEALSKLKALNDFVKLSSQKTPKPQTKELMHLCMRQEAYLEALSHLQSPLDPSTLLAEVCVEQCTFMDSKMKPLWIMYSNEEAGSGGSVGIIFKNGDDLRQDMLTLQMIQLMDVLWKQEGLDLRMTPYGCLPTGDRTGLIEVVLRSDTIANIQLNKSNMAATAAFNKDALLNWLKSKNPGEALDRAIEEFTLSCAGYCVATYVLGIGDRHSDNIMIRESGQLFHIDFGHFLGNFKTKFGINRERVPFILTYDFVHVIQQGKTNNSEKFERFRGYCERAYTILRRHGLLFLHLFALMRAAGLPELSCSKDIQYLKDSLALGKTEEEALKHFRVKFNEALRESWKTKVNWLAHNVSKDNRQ
PI3K δ, sequence (P27986 whole entry partner): as the sequence (P27986 whole entry partner) above
PI3K γ, sequence (P48736 whole entry): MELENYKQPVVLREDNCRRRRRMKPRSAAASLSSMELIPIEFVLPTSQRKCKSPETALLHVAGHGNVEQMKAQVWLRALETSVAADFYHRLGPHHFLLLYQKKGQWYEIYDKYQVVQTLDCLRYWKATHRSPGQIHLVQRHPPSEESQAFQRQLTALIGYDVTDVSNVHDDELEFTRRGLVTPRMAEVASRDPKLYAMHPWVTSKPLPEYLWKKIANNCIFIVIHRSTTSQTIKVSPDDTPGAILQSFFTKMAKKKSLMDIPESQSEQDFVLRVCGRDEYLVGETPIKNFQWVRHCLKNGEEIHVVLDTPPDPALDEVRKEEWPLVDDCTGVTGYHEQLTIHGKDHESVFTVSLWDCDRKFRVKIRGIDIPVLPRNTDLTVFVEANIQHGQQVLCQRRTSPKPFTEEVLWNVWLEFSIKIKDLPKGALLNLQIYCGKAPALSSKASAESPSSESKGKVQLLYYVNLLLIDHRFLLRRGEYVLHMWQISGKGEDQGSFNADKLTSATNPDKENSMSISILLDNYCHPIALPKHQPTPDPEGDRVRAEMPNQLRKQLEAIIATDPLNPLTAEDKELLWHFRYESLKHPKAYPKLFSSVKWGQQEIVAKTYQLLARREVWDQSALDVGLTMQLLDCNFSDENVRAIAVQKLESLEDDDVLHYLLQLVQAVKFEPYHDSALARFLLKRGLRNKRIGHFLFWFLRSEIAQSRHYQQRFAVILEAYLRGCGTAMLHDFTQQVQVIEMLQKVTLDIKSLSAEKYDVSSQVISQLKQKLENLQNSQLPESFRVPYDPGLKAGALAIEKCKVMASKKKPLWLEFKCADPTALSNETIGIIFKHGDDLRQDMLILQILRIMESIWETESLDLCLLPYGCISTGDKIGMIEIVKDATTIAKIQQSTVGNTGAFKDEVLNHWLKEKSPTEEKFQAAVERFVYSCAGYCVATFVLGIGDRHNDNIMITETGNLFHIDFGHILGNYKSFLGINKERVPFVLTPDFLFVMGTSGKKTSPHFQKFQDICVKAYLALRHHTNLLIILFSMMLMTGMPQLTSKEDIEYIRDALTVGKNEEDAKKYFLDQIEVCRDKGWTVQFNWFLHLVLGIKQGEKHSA

SMILES | IC50 [1] [nM] | IC50 [2] [nM] | IC50 [3] [nM] | IC50 [4] [nM]
Cc1nc2ccc(-c3ccc4oc(N)nc4c3)cn2c1C(=O)N1CCN(C)CC1 | > 10000 | > 10000 | > 10000 | > 10000
Cc1nc2ccc(-c3ccc4oc(N)nc4c3)cn2c1C(=O)N1CCOCC1 | > 10000 | > 10000 | > 10000 | > 10000
Nc1nc2cc(-c3ccc4ncc(C(=O)N5CCOCC5)cc4c3)ccc2o1 | > 10000 | > 10000 | < 10000 | > 10000
CC(C)N1CCC(Nc2ncnc3ccc(-c4ccc5oc(N)nc5c4)cc23)CC1 | < 10000 | < 1000 | < 100 | < 10000
CN1CCN(C(=O)c2cnc3ccc(-c4ccc5oc(N)nc5c4)nn23)CC1 | < 10000 | > 10000 | < 10000 | > 10000
C[C@@H]1CN(C(=O)c2cnc3ccc(-c4ccc5oc(N)nc5c4)cn23)C[C@H](C)O1 | < 10000 | > 10000 | < 10000 | > 10000
Nc1nc2cc(-c3ccc4ncc(C(=O)N5CCS(=O)(=O)CC5)n4c3)ccc2o1 | < 10000 | > 10000 | < 1000 | > 10000
Nc1nc2cc(-c3ccc4ncc(C(=O)N5CCNCC5)n4c3)ccc2o1 | > 10000 | > 10000 | < 100 | < 10000
CN1CCN(c2cnc3ccc(-c4ccc5nc(N)sc5c4)cc3n2)CC1 | < 10000 | > 10000 | < 100 | < 100
CN1CCN(c2cnc3ccc(-c4ccc5nc(N)oc5c4)cc3n2)CC1 | < 10000 | > 10000 | < 1000 | < 100
CNC(=O)CN1CCN(c2cnc3ccc(-c4ccc5oc(N)nc5c4)cc3n2)CC1 | > 10000 | < 10000 | < 100 | < 1000
Nc1nc2cc(-c3cn4c(C(=O)N5CCOCC5)cnc4cn3)ccc2o1 | > 10000 | > 10000 | > 10000 | > 10000
CN1CCN(C(=O)c2cnc3cnc(-c4ccc5oc(N)nc5c4)cn23)CC1 | > 10000 | > 10000 | < 10000 | > 10000
CN1CCN(c2cnc3ccc(-c4ccc5sc(N)nc5c4)cc3n2)CC1 | < 10000 | > 10000 | < 1000 | < 100
CC(=O)Nc1nc2ccc(-c3nc(N4CCOCC4)c4sc(CN5CCN(S(C)(=O)=O)CC5)cc4n3)cc2s1 | > 10000 | > 10000 | > 10000 | > 10000
C[C@@H]1CN(c2cnc3ccc(-c4ccc5oc(N)nc5c4)cc3n2)C[C@H](C)O1 | < 10000 | > 10000 | < 1000 | > 10000
CC(N)C(=O)N1CCN(c2cnc3ccc(-c4ccc5oc(N)nc5c4)cc3n2)CC1 (stereo not drawn) | < 10000 | < 1000 | < 100 | < 1000
CN1CCCN(c2cnc3ccc(-c4ccc5oc(N)nc5c4)cc3n2)CC1 | < 10000 | > 10000 | < 1000 | < 1000
CN1CCCN(C(=O)c2cnc3ccc(-c4ccc5oc(N)nc5c4)cn23)CC1 | > 10000 | > 10000 | < 1000 | < 10000

The remaining lines, values ahead:

IC50 [1] [nM] | IC50 [2] [nM] | IC50 [3] [nM] | IC50 [4] [nM] | SMILES
< 1000 | < 10000 | < 100 | < 1000 | CS(=O)(=O)CCN1CCN(c2cnc3ccc(-c4ccc5oc(N)nc5c4)cc3n2)CC1
< 100 | < 10000 | < 100 | < 1000 | Cn1cc(-c2cnc3ccc(-c4ccc5oc(N)nc5c4)cc3n2)cn1
< 100 | < 100 | < 100 | < 10000 | CS(=O)(=O)N1CCC(Nc2cnc3ccc(-c4ccc5oc(N)nc5c4)cc3n2)CC1
< 100 | < 1000 | < 100 | < 10000 | Nc1nc2cc(-c3ccc4ncc(NC5CCOCC5)nc4c3)ccc2o1
< 100 | > 10000 | < 100 | > 10000 | Nc1nc2cc(-c3ccc4ncc(N5CCS(=O)(=O)CC5)nc4c3)ccc2o1
< 1000 | < 1000 | < 100 | < 10000 | Nc1nc2cc(-c3ccc4ncc(N5CCC(O)CC5)nc4c3)ccc2o1
< 1000 | < 10000 | < 100 | < 100 | Nc1nc2cc(-c3ccc4ncc(N5CCN(CCO)CC5)nc4c3)ccc2o1
< 100 | < 1000 | < 100 | < 1000 | CC(C)(C#N)c1ccc(Nc2ncnc3ccc(-c4ccc5oc(N)nc5c4)cc23)cc1
< 1000 | < 1000 | < 100 | < 1000 | CN(C)CC(=O)N1CCC(Nc2ncnc3ccc(-c4ccc5oc(N)nc5c4)cc23)CC1
< 1000 | > 10000 | < 1000 | < 10000 | Nc1nc2cc(-c3ccc4ncc(C(=O)N5CCOCC5)n4n3)ccc2o1
< 100 | > 10000 | < 100 | < 10000 | Nc1nc2cc(-c3ccc4ncc(-c5cnn(CCO)c5)nc4c3)ccc2o1
< 1000 | < 10000 | < 100 | > 10000 | CS(=O)(=O)N1CCN(C(=O)c2cnc3ccc(-c4ccc5oc(N)nc5c4)cn23)CC1
< 1000 | > 10000 | < 100 | > 10000 | CC(=O)N1CCN(C(=O)c2cnc3ccc(-c4ccc5oc(N)nc5c4)cn23)CC1
< 1000 | > 10000 | < 100 | > 10000 | Nc1nc2ccc(-c3ccc4ncc(N5CCOCC5)nc4c3)cc2s1
< 1000 | > 10000 | < 100 | < 1000 | Nc1nc2cc(-c3ccc4ncc(N5CCOCC5)nc4c3)ccc2s1
< 1000 | > 10000 | < 100 | < 1000 | Nc1nc2ccc(-c3ccc4ncc(N5CCOCC5)nc4c3)cc2o1
< 100 | < 100 | < 100 | < 100 | Nc1nc2cc(-c3ccc4ncc(N5CCN(C(=O)[C@@H]6CCCN6)CC5)nc4c3)ccc2o1
< 1000 | > 10000 | < 1000 | < 1000 | Nc1nc2ccc(-c3ccc4ncc(C(=O)N5CCOCC5)n4c3)cc2o1
< 1000 | < 10000 | < 1000 | > 10000 | Nc1nc2ccc(-c3ccc4ncc(C(=O)N5CCOCC5)n4c3)cc2s1
< 1000 | > 10000 | < 1000 | < 10000 | Nc1nc2cc(-c3ccc4ncc(C(=O)N5CCOCC5)n4c3)ccc2s1
< 100 | < 100 | < 100 | < 10000 | Nc1nc2cc(-c3ccc4ncc(N[C@H]5CC[C@H](O)CC5)nc4c3)ccc2o1
< 1000 | < 1000 | < 1000 | < 1000 | CC1CN(c2cnc3ccc(-c4ccc5oc(N)nc5c4)cc3n2)CC(C)N1 (stereo not drawn)
< 1000 | < 100 | < 100 | < 1000 | CN1CC(C(=O)N2CCC(Nc3ncnc4ccc(-c5ccc6oc(N)nc6c5)cc34)CC2)C1
